Measurements reported in PubChem BioAssay (NCI).
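Growth conditions: 96-well plates. Treatment: test compound, 48 hours, 5 concentrations. Analysis: linear interpolation between bracketing concentrations; unreached endpoints set to highest concentration. At the GI50, growth is halved. TGI: total growth inhibition.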

Columns and labels:
Test in all cases: NCI tumour cell line growth inhibition, 48 h
U251 CNS = test system: U251 CNS
SNB-19 CNS = test system: SNB-19 CNS
CAKI-1 renal = test system: CAKI-1 renal
OVCAR-3 ovarian = test system: OVCAR-3 ovarian
NCI/ADR-RES ovarian = test system: NCI/ADR-RES ovarian
HOP-62 NSCLC = test system: HOP-62 NSCLC
CCRF-CEM leukemia = test system: CCRF-CEM leukemia
OVCAR-5 ovarian = test system: OVCAR-5 ovarian
COLO 205 colon = test system: COLO 205 colon
SK-OV-3 ovarian = test system: SK-OV-3 ovarian

Structure (SMILES) | GI50 (U251 CNS) | TGI (U251 CNS) | GI50 (SNB-19 CNS) | TGI (SNB-19 CNS) | GI50 (CAKI-1 renal) | TGI (CAKI-1 renal) | GI50 (OVCAR-3 ovarian) | TGI (OVCAR-3 ovarian) | GI50 (NCI/ADR-RES ovarian) | TGI (NCI/ADR-RES ovarian) | GI50 (HOP-62 NSCLC) | TGI (HOP-62 NSCLC) | GI50 (CCRF-CEM leukemia) | TGI (CCRF-CEM leukemia) | GI50 (OVCAR-5 ovarian) | TGI (OVCAR-5 ovarian) | GI50 (COLO 205 colon) | TGI (COLO 205 colon) | GI50 (SK-OV-3 ovarian) | TGI (SK-OV-3 ovarian)
CC1(C)CC(=O)C2=C(C1)NC(SSC1=C(C#N)C(c3ccccc3)C3=C(CC(C)(C)CC3=O)N1)=C(C#N)C2c1ccccc1 (centres undefined) | 33.2 µg/mL | 64.2 µg/mL | 89.2 µg/mL | > 150 µg/mL | 28.3 µg/mL | 49.4 µg/mL | 26.3 µg/mL | 47.8 µg/mL | 32.9 µg/mL | 65.9 µg/mL | 72.3 µg/mL | > 150 µg/mL | 24.6 µg/mL | > 150 µg/mL | 27.8 µg/mL | 50.9 µg/mL | 29.5 µg/mL | 51.5 µg/mL | 22.9 µg/mL | 59 µg/mL
O=C(Nc1ccncc1)C(=O)c1cn(S(=O)(=O)c2ccc(Br)cc2)c2ccccc12 | 6.41 µM | > 100 µM | 14.1 µM | > 100 µM | 4.44 µM | > 100 µM | 4.54 µM | > 100 µM | 2.65 µM | > 100 µM | 3.67 µM | 38.7 µM | 7.67 µM | > 100 µM | > 100 µM | > 100 µM | 27.7 µM | > 100 µM | 19.9 µM | > 100 µM
COC(=O)[C@]12CC[C@@H](C)[C@H](C)[C@@H]1C1=CC[C@@H]3[C@@]4(C)CC(=O)[C@H](O)[C@@]5(C)COC(=C45)C[C@@]3(C)[C@]1(C)CC2 | 17.9 µM | 31.9 µM | 19 µM | 42.1 µM | 15.6 µM | 29.3 µM | 19 µM | 34.8 µM | 18.4 µM | 37.6 µM | 16.9 µM | 31.1 µM | 19.7 µM | 43.5 µM | 18.4 µM | 37.7 µM | 17.9 µM | 33.5 µM | 18.2 µM | 32.8 µM
COC(=O)c1cnc(=O)n(C2CC(O)C(CO)O2)c1 (centres undefined) | > 100 µM | > 100 µM | > 100 µM | > 100 µM | > 100 µM | > 100 µM | > 100 µM | > 100 µM | > 100 µM | > 100 µM | > 100 µM | > 100 µM |  | > 100 µM | > 100 µM | > 100 µM | > 100 µM | > 100 µM | > 100 µM | > 100 µM
O=C1/C(=C\c2ccc(Cl)cc2)CN(C(=S)Nc2ccccc2)C/C1=C\c1ccc(Cl)cc1 | 0.212 µM | 0.484 µM | 0.661 µM | 1.95 µM | 2.56 µM | > 29.2 µM | 0.437 µM | 1.49 µM | 2.54 µM | 18.4 µM | 0.269 µM | 0.696 µM | 0.453 µM | 13.2 µM | 1.47 µM | 3.49 µM | 0.507 µM | 1.84 µM | 2.03 µM | 4.86 µM
CC1(C)N=C(N)N=C(N)N1c1cccc(/C=C/C=C/c2cccc([N+](=O)[O-])c2)c1 | 0.801 µM | 13.6 µM | 6.04 µM | 22.5 µM | 75.3 µM | > 100 µM | 1.89 µM | 13.1 µM | > 100 µM | > 100 µM | 18.1 µM | 35.9 µM | 3.61 µM | 18.9 µM | 10.5 µM | 42.5 µM | 4.4 µM | 19.8 µM | 32.1 µM | > 100 µM
